According to patent publication US20240252581A1, “COMPOSITIONS AND METHODS FOR TREATING RESPIRATORY DISTRESS” (S.I.S. SHULOV INNOVATIVE SCIENCE LTD., priority 2021, published 2024):
“And” between values parts separate entries of the source, which are not always exact repeats. Equal values may be shown once. Square brackets hold non-standard residues; d marks the D form. Peptide text beside a SMILES is read from it. * marks the point of attachment. pGlu = O=C1CC[C@@H](C(=O)O)N1; Octanoyl = CCCCCCCC(=O)*

Tested on: inflammatory cytokines in BALF
Test: LPS-induced acute lung injury / ARDS mouse model: BALF cytokine concentrations (multiplex ELISA)
Type: in vivo, BALB/c mice
Design: key to INF-γ / IL-1α / IL-5 / IL-6 / IL-10 / IL-12 / IL-17 / KC / MCP-1 / TNF-α / CXCL10 / RANTES / G-CSF / CCL3: (+) indicates activation; (−) indicates inhibition
Protocol: In order to test the efficacy of ZEP3 sodium on lung inflammation, the lipopolysaccharide (LPS)-induced acute lung injury model was used. In particular, LPS was administered intratracheally at doses of 10 or 40 mg/kg body weight (BW) corresponding to 0.2 or 0.8 mg/mouse, respectively.
ZEP3 sodium was administered by inhalation (INH) at doses of 25 or 250 mg/kg BW (0.5 or 5 mg/mouse, respectively), or intratracheally (IT) at doses of 5 or 20 mg/kg BW (0.1 or 0.4 mg/mouse, respectively) 6 hours after LPS administration and its effect was measured 72 hours following administration in the branchial alveolar fluid (BALF) using FACS instrumentation.
To detect cytokine release in lungs fluid, cytokine concentrations were assessed in BALF samples using high sensitivity multiplex ELISA assays for: IFN-γ, IL-1α, IL-5, IL-6, IL-10, IL-12 (p70), IL-17A, KC, MCP-1, TNF-α, IP-10, RANTES, G-CSF, MIP-1α and RANTES. ZEP3Na administered intratracheally at 0.1 and 0.4 mg per mouse after instillation of 0.2 mg LPS inhibited the concentration of following interleukins: IL-1α, IL-6, IL-10, IL-12, IL-17, KC, MCP-1, TNF-α and G-CSF.

[1] = Group 9: LPS 0.2 mg + ZEP3Na 0.4 mg IT, BALF, group mean
[2] = Group 9: LPS 0.2 mg + ZEP3Na 0.4 mg IT, BALF, individual mice
[3] = LPS 0.2 mg + ZEP3Na (IT) 0.1 mg, BALF
[4] = LPS 0.2 mg + ZEP3Na (IT) 0.4 mg, BALF
[5] = LPS 0.8 mg + ZEP3Na (INH) 0.5 mg, BALF
[6] = LPS 0.8 mg + ZEP3Na (INH) 5 mg, BALF
[7] = LPS 0.8 mg + ZEP3Na (IT) 0.1 mg, BALF
[8] = LPS 0.8 mg + ZEP3Na (IT) 0.4 mg, BALF

CCCCCCCC(=O)NCCCC[C@H](NC(=O)[C@H](Cc1c[nH]c2ccccc12)NC(=O)[C@H](CC(N)=O)NC(=O)[C@@H]1CCC(=O)N1)C(=O)O [ZEP3Na, pGlu-Asn-Trp-Lys(Octanoyl)-ONa] ([pGlu]NWK(Octanoyl)-OH)
KC [1]: 751.10 pg/mL
MCP-1 [1]: 180.27 pg/mL
G-CSF [2]: 176.85 pg/mL and 200.57 pg/mL and 585.70 pg/mL and 211.19 pg/mL and 8.45 pg/mL and 138.72 pg/mL and 227.63 pg/mL
G-CSF (pg/ml) [2]: undetected
IL-12 (p70) [2]: 408.22 pg/ml and 471.74 pg/ml and 15.41 pg/ml (2×) and 262.69 pg/ml and 11.53 pg/ml and 8.09 pg/ml and 115.45 pg/ml and 140.60 pg/ml
IL-17A [2]: 386.05 pg/mL and 1361.97 pg/mL and 15.26 pg/mL and 3386.75 pg/mL and 22.20 pg/mL and 4.57 pg/mL and 2.99 pg/mL and 21.13 pg/mL and 55.67 pg/mL
KC [2]: 1154.03 pg/mL and 1559.44 pg/mL and 1143.16 pg/mL and 1153.90 pg/mL and 127.59 pg/mL and 63.82 pg/mL and 75.31 pg/mL and 656.41 pg/mL and 826.24 pg/mL
MCP-1 [2]: 240.17 pg/mL and 115.81 pg/mL and 823.17 pg/mL and 151.55 pg/mL and 14.15 pg/mL and 102.63 pg/mL and 174.95 pg/mL
MCP-1 (pg/ml) [2]: undetected
CXCL10 [3]: −
G-CSF [3]: −
IL-1α [3]: −
IL-6 [3]: −
IL-10 [3]: −
IL-12 [3]: −
IL-17 [3]: −
KC [3]: −
MCP-1 [3]: −
TNF-α [3]: −
CXCL10 [4]: −
G-CSF [4]: −
IL-1α [4]: −
IL-6 [4]: −
IL-10 [4]: −
IL-12 [4]: −
IL-17 [4]: −
KC [4]: −
MCP-1 [4]: −
TNF-α [4]: −
CCL3 [5]: −
CXCL10 [5]: −
G-CSF [5]: −
IL-1α [5]: −
IL-5 [5]: −
IL-6 [5]: −
IL-10 [5]: +
IL-12 [5]: −
IL-17 [5]: −
INF-γ [5]: −
KC [5]: −
MCP-1 [5]: −
RANTES [5]: −
TNF-α [5]: −
CCL3 [6]: −
CXCL10 [6]: −
G-CSF [6]: −
IL-1α [6]: −
IL-5 [6]: −
IL-6 [6]: −
IL-10 [6]: +
IL-12 [6]: −
IL-17 [6]: −
INF-γ [6]: −
KC [6]: −
MCP-1 [6]: −
RANTES [6]: −
TNF-α [6]: −
IL-12 [7]: −
TNF-α [7]: −
IL-12 [8]: −
TNF-α [8]: −
levels of INF-γ, IL-1α, IL-5, IL-6, IL-12, IL-17, KC, MCP-1, TNF-α, CXCL10, RANTES, G-CSF, and CCL3 (administered by inhalation following LPS instillation): significantly inhibited the expression and reduced the levels
levels of IL-1α, IL-6, IL-10, IL-12, IL-17, KC, MCP-1, TNF-α, CXCL10, and G-CSF (administered intratracheally following LPS instillation): significantly inhibited the expression and reduced the levels
concentration of IL-1α, IL-6, IL-10, IL-12, IL-17, KC, MCP-1, TNF-α and G-CSF (intratracheally at 0.1 and 0.4 mg per mouse after instillation of 0.2 mg LPS, BALF): inhibited
